# Laboratory results taken from patent US20210401776A1, “METHOD OF TREATING […] SYNDROMES USING FENFLURAMINE ENANTIOMERS” (ZOGENIX INTERNATIONAL LIMITED, priority 2018, published 2021).
# “Also recorded” adds a separate entry of the source.
# How the values were obtained:
# [1] = tested on: homozygous scn1Lab−/− mutants; test: epileptiform activity, open-field recordings in larval forebrain (LFP assay); assay type: in vivo, zebrafish (Danio rerio); details: for LFP Assay: Table 1, 25, 59 and 100 μM, oral via embryo medium
# [2] = tested on: homozygous scn1Lab−/− mutants; test: zebrafish locomotor assay (total distance in large movements, lardist); assay type: in vivo, zebrafish (Danio rerio); details: scn1Lab−/− mutants; for reduction in seizure behavior: fixed concentration, FIG. 3
# Excerpt: (Baraban et al, 2013). Additional phenotypes of these mutants include: abnormal optokinetic response (OKR; 5 dpf); darkened pigmentation; death by 14 dpf; spontaneous seizure-like activity; abnormal (forebrain electrographic activity (3-7 dpf); seizure activity; lower levels of serotonin in scn1lab^−/− head homogenates at 7 dpf; zebrafish express orthologs of human serotonin (5HT) receptor subtypes at 5 dpf; nighttime hyperactivity (5 dpf); in open field-increased thigmotaxis. decreased movement (at 5 dpf); no differences in GABAergic neurons compared to wild type (5 dpf); 5-HT2a (hitr2aa/b) and S-HT2c; (htr2c11) orthologs expressed in larval heads in wild-type and scn1lab−/− mutants and in adult wild-type brains.
# To assay the locomotor activity of homozygous scn1Lab−/− mutants and control WT scn1Lab+/+, zebrafish larvae were placed one larva per well in a 96-well plate in 100 μL of embryo medium from 4 to 8 days post-fertilization (dpf). Each day the larvae are tracked in an automated tracking device (ZebraBox™ apparatus; Viewpoint, Lyon, France) for 10 min after 30 min habituation (100-second integration interval). All recordings were performed at the same time during daytime period. The total distance in large movements was recorded and quantified using ZebraLab™ software (Viewpoint, Lyon, France). Data was pooled together from at least three independent experiments with at least 24 larvae per condition.
# Scn1Lab^−/− mutants and WT scn1Lab+/+ larvae are arrayed in the same plate and treated at 6 days post fertilization (dpf) with the test compounds (25 μM), or VHC in individual wells of a 96-well plate. After incubation at 28° C. on a 14/10 hour light/dark cycle and 30-min chamber habituation 6 and 7 dpf larvae are tracked for locomotor activity for 10 min (100-second integration interval) under dark conditions. An incubation time of 1.5 hours is further referred to as short treatment (6 dpf). Furthermore, these larvae are analyzed after more than 22 hours incubation (7 dpf), i.e. long treatment. The total locomotor activity is quantified using the parameter lardist and plotted in cm. Data for each compound is pooled together from multiple independent experiments with at least 9 larvae per treatment condition.
# dizocilpine-treated mice [3] = test: step-through passive avoidance, dizocilpine-induced amnesia model; assay type: in vivo, Male Swiss OF-1 mice
# dizocilpine-treated mice [4] = test: spontaneous alternation in the Y-maze, dizocilpine-induced amnesia model; assay type: in vivo, Male Swiss OF-1 mice
compound,measurement,setting,value
"CC(N)Cc1cccc(C(F)(F)F)c1 (single isomer, unassigned; (+)) [(+)-Norfenfluramine]",LFP Assay,[1],Less effective than (+)-FFA;
same,antiseizure activity in the zebrafish locomotor assay,[2],more efficacious than (−)-norfenfluramine
same,reduction in seizure behavior,[2],80%
"CC(N)Cc1cccc(C(F)(F)F)c1 (single isomer, unassigned; (-)) [(−)-Norfenfluramine]",anti-epileptiform activity (frequency and cumulative duration of epileptiform events over 10 minutes),"[1]; 50 micromolar, FIGS. 4 and 5",less efficacious than (+)- and (−)-fenfluramine; also recorded: comparable
same,LFP Assay,[1],Inactive
same,reduction in seizure behavior,[2],45%
"Cl.O=C(OCCN1CCOCC1)C1(c2ccccc2)CCCCC1 [PRE-084, 2-(4-Morpholinethyl)-1-phenylcyclohexanecarboxylate hydrochloride]",PP (%),"dizocilpine-treated mice [3]; Table 2 StepThrough/Passive Avoidance, drug alone 0.1 mg/kg IP",4.9 ± 9.9%
same,PP (%),"dizocilpine-treated mice [3]; Table 2 StepThrough/Passive Avoidance, drug alone 0.3 mg/kg IP",34.6 ± 10.5 ^3%
same,PP (%),"dizocilpine-treated mice [3]; Table 3 StepThrough/PassiveAvoidance, drug alone 0.1 mg/kg IP",7.6 ± 12.4%
same,PP (%),"dizocilpine-treated mice [3]; Table 3 StepThrough/PassiveAvoidance, drug alone 0.3 mg/kg IP",25.2 ± 9.8 ^3%
same,PP (%),"dizocilpine-treated mice [3]; Table 4 StepThrough/PassiveAvoidance, drug alone 0.1 mg/kg IP",8.8 ± 11.0%
same,PP (%),"dizocilpine-treated mice [3]; Table 4 StepThrough/PassiveAvoidance, drug alone 0.3 mg/kg IP",38.9 ± 10.4 ^3%
same,PP (%),"dizocilpine-treated mice [4]; Table 2 Y-Maze, drug alone 0.1 mg/kg IP",6.6 ± 12.8%
same,PP (%),"dizocilpine-treated mice [4]; Table 2 Y-Maze, drug alone 0.3 mg/kg IP",40.5 ± 9.2 ^1%
same,PP (%),"dizocilpine-treated mice [4]; Table 3 Y-Maze, drug alone 0.1 mg/kg IP",15.4 ± 10.9%
same,PP (%),"dizocilpine-treated mice [4]; Table 3 Y-Maze, drug alone 0.3 mg/kg IP",32.6 ± 8.9 ^1%
same,PP (%),"dizocilpine-treated mice [4]; Table 4 Y Maze, drug alone 0.1 mg/kg IP",17.2 ± 13.8%
same,PP (%),"dizocilpine-treated mice [4]; Table 4 Y Maze, drug alone 0.3 mg/kg IP",27.0 ± 9.5 ^1%
Dehydroepiandrosterone sulfate [DHEAS],PP (%),"dizocilpine-treated mice [3]; Table 5 STPA, DHEAS alone 5 mg/kg sc",19.1 ± 10.7%
same,PP (%),"dizocilpine-treated mice [3]; Table 5 STPA, DHEAS alone 10 mg/kg sc",47.2 ± 12.8%
same,PP (%),"dizocilpine-treated mice [3]; Table 5 STPA, DHEAS alone 20 mg/kg sc",40.3 ± 13.3^4%
same,PP (%),"dizocilpine-treated mice [4]; Table 5 YMT, DHEAS alone 5 mg/kg sc",18.4 ± 9.7%
same,PP (%),"dizocilpine-treated mice [4]; Table 5 YMT, DHEAS alone 10 mg/kg sc",29.8 ± 7.4%
same,PP (%),"dizocilpine-treated mice [4]; Table 5 YMT, DHEAS alone 20 mg/kg sc",57.9 ± 11.0^1%
pregnenolone sulfate [PREGS],PP (%),"dizocilpine-treated mice [3]; Table 6 STPA, PREGS alone 5 mg/kg sc",4.4 ± 16.3%
same,PP (%),"dizocilpine-treated mice [3]; Table 6 STPA, PREGS alone 10 mg/kg sc",21.0 ± 14.6%
same,PP (%),"dizocilpine-treated mice [3]; Table 6 STPA, PREGS alone 20 mg/kg sc",26.0 ± 19.1 ^4%
same,PP (%),"dizocilpine-treated mice [4]; Table 6 YMT, PREGS alone 5 mg/kg sc",3.5 ± 17.6%
same,PP (%),"dizocilpine-treated mice [4]; Table 6 YMT, PREGS alone 10 mg/kg sc",52.4 ± 12.2%
same,PP (%),"dizocilpine-treated mice [4]; Table 6 YMT, PREGS alone 20 mg/kg sc",72.1 ± 12.4 ^1%
